# Assay results: patent US20060069132A1, “Azolecarboxamide herbicides” (priority 2004, published 2006)
# How the values were obtained:
# morningglory = assay: Test A pre-/postemergence herbicide test; format: in vivo, Ipomoea spp.
# Method in brief: (§1)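 Seeds sown in sandy loam received a preemergence directed soil spray of compound in non-phytotoxic solvent with surfactant; postemergence plants (2–10 cm, one- to two-leaf stage) were sprayed to runoff at the same time. After ~10 days in greenhouse, injury was rated visually versus untreated controls (0 = no effect, 100 = complete control).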
# velvetleaf = assay: Test A pre-/postemergence herbicide test; format: in vivo, Abutilon theophrasti
# Method in brief: as §1
# bermudagrass = assay: Test C pre-/postemergence herbicide test; format: in vivo, Cynodon dactylon
# Method in brief: (§2)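 Seeds were planted and sprayed preemergence with test chemicals in a non-phytotoxic solvent mixture containing surfactant; postemergence treatments went onto plants 2 to 18 cm tall (1- to 4-leaf stage). After 12 to 14 days in a greenhouse, injury was rated visually against untreated controls on a 0–100 scale.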
# Surinam grass = assay: Test C pre-/postemergence herbicide test; format: in vivo, Urochloa decumbens; conditions: for Surinam Grass plant response rating: 500 g ai/ha
# Method in brief: as §2
# cocklebur = assay: Test C pre-/postemergence herbicide test; format: in vivo, Xanthium strumarium; conditions: for Cocklebur plant response rating: 500 g ai/ha
# Method in brief: as §2
# goosegrass = assay: Test C pre-/postemergence herbicide test; format: in vivo, Eleusine indica; conditions: for Goosegrass plant response rating: 500 g ai/ha
# Method in brief: as §2
# johnsongrass = assay: Test C pre-/postemergence herbicide test; format: in vivo, Sorghum halepense; conditions: for Johnsongrass plant response rating: 500 g ai/ha
# Method in brief: as §2
# pigweed = assay: Test C pre-/postemergence herbicide test; format: in vivo, Amaranthus retroflexus; conditions: for Pigweed plant response rating: 500 g ai/ha
# Method in brief: as §2
# soybean = assay: Test C pre-/postemergence herbicide test; format: in vivo, Glycine max; conditions: for Soybean plant response rating: 500 g ai/ha
# Method in brief: as §2
# [1] = test system: smallflower umbrella sedge; assay: Test C flooded paddy test; format: in vivo, Cyperus difformis
# ducksalad = assay: Test C flooded paddy test; format: in vivo, Heteranthera limosa
# [2] = Postemergence, 500 g ai/ha, 0 to 100 scale, 0 no effect, 100 complete control
# [3] = Postemergence, 2000 g ai/ha, 0 to 100 scale, 0 no effect, 100 complete control
# [4] = Preemergence, 2000 g ai/ha, visual rating, 0 to 100 scale (0 no effect, 100 complete control)
# [5] = 125 g ai/ha, scale 0 (no effect) to 100 (complete control), visual, 12 to 14 days, preemergence
# [6] = Postemergence, 250 g ai/ha, scale 0 to 100, 0 no effect, 100 complete control
# [7] = Preemergence, scale 0 to 100, 0 no effect, 100 complete control
# [8] = postemergence, 125 g ai/ha, scale 0 to 100
# [9] = postemergence, 62 g ai/ha, scale 0 to 100
# [10] = 62 g ai/ha, scale 0 to 100 (0 no effect, 100 complete control)
# [11] = 125 g ai/ha, scale 0 to 100 (0 no effect, 100 complete control)
smiles,measurement,setting,value
C#CCNC(=O)c1cccc(NC(=O)c2cc(C(C)(C)C)nn2CC)n1 [Compound 147],Morningglory plant response rating,morningglory; [2],20
same,"Plant response rating, Morningglory",morningglory; [3],30
same,Morningglory plant response rating,"morningglory; Preemergence, 500 g ai/ha, visual rating, 0 to 100 scale (0 no effect, 100 complete control)",20
same,Morningglory plant response rating,morningglory; [4],45
same,Velvetleaf plant response rating,velvetleaf; [2],30
same,"Plant response rating, Velvetleaf",velvetleaf; [3],50
same,Velvetleaf plant response rating,velvetleaf; [4],85
same,Velvetleaf plant response rating,"velvetleaf; preemergence, 500 g ai/ha, visual injury, 0 to 100 scale (0 no effect, 100 complete control)",25
same,"Plant response rating (0 = no effect, 100 = complete control), Bermudagrass","bermudagrass; 62 g ai/ha, preemergence",40
same,"Plant response rating, Bermudagrass",bermudagrass; [5],70
same,"Plant response rating, Bermudagrass","bermudagrass; 250 g ai/ha, scale 0 to 100 (0 no effect, 100 complete control), visual, 12 to 14 days, preemergence",90
same,"Plant response rating, Bermudagrass",bermudagrass; [6],70
same,Bermudagrass plant response rating,"bermudagrass; Preemergence, 500 g ai/ha, scale 0 to 100, 0 no effect, 100 complete control",95
same,"Plant response rating (0 = no effect, 100 = complete control), Surinam Grass","Surinam grass; 62 g ai/ha, preemergence",0
same,"Plant response rating, Surinam Grass",Surinam grass; [5],10
same,Surinam Grass plant response rating,"Surinam grass; Postemergence, scale 0 to 100",60
same,"Plant response rating, Surinam Grass",Surinam grass; [6],30
same,Surinam Grass plant response rating,Surinam grass; [7],60
same,"Plant response rating, Surinam Grass",Surinam grass; [8],0
same,"Plant response rating, Surinam Grass",Surinam grass; [9],0
same,"Plant response rating (0 = no effect, 100 = complete control), Cocklebur","cocklebur; 62 g ai/ha, preemergence",0
same,Cocklebur plant response rating,"cocklebur; Postemergence, scale 0 to 100",20
same,"Plant response rating, Cocklebur",cocklebur; [6],5
same,Cocklebur plant response rating,cocklebur; [7],0
same,"Plant response rating, Cocklebur",cocklebur; [8],5
same,"Plant response rating, Cocklebur",cocklebur; [9],0
same,"Plant response rating (0 = no effect, 100 = complete control), Goosegrass","goosegrass; 62 g ai/ha, preemergence",0
same,"Plant response rating, Goosegrass",goosegrass; [5],20
same,Goosegrass plant response rating,"goosegrass; Postemergence, scale 0 to 100",5
same,"Plant response rating, Goosegrass",goosegrass; [6],5
same,Goosegrass plant response rating,goosegrass; [7],80
same,"Plant response rating, Goosegrass",goosegrass; [8],0
same,"Plant response rating, Goosegrass",goosegrass; [9],0
same,"Plant response rating (0 = no effect, 100 = complete control), Johnsongrass","johnsongrass; 62 g ai/ha, preemergence",0
same,"Plant response rating, Johnsongrass",johnsongrass; [5],40
same,Johnsongrass plant response rating,"johnsongrass; Postemergence, scale 0 to 100",10
same,"Plant response rating, Johnsongrass",johnsongrass; [6],10
same,Johnsongrass plant response rating,johnsongrass; [7],80
same,"Plant response rating, Johnsongrass",johnsongrass; [9],0
same,"Plant response rating (0 = no effect, 100 = complete control), Pigweed","pigweed; 62 g ai/ha, preemergence",20
same,"Plant response rating, Pigweed",pigweed; [5],90
same,Pigweed plant response rating,"pigweed; Postemergence, scale 0 to 100",100
same,"Plant response rating, Pigweed",pigweed; [6],100
same,Pigweed plant response rating,pigweed; [7],100
same,"Plant response rating, Pigweed",pigweed; [8],90
same,"Plant response rating, Pigweed",pigweed; [9],90
same,"Plant response rating (0 = no effect, 100 = complete control), Soybean","soybean; 62 g ai/ha, preemergence",0
same,"Plant response rating, Soybean",soybean; [5],0
same,Soybean plant response rating,"soybean; Postemergence, scale 0 to 100",70
same,"Plant response rating, Soybean",soybean; [6],40
same,Soybean plant response rating,soybean; [7],5
same,"Plant response rating, Soybean",soybean; [8],35
same,"Plant response rating, Soybean",soybean; [9],10
same,"Sedge, Umbrella plant response rating","[1]; 16 g ai/ha, scale 0 to 100",0
same,"Sedge, Umbrella plant response rating","[1]; 31 g ai/ha, scale 0 to 100",20
same,"Sedge, Umbrella plant response rating",[1]; [10],30
same,"Sedge, Umbrella plant response rating",[1]; [11],50
same,Ducksalad plant response rating,"ducksalad; 16 g ai/ha, scale 0 to 100",0
same,Ducksalad plant response rating,"ducksalad; 31 g ai/ha, scale 0 to 100",0
same,Ducksalad plant response rating,ducksalad; [10],0
same,Ducksalad plant response rating,ducksalad; [11],0
